For experiment [1], the target named is T1, human IDO (IDO1-expressing HEK293 cells) (Homo sapiens, UniProt P14902).
T1 construct: expressed in transfected cells
In words: Cell based kynurenine assay, IDO1-expressing HEK293 cell clones. Particulars: IDO1-expressing HEK293 cells, 24 hours incubation; geometric mean; read-out: HEK293 IDO1 Kynurenine GMean IC50 (μM) (Cellular Assay). The essentials: (§1)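 Stably transfected HEK293 clones expressing human IDO1 or TDO (CMV promoter) were seeded at 2.5×10^4 cells/well and treated with serially diluted compounds for 24 h. Supernatant kynurenine was then measured, and % inhibition versus DMSO-treated cell and media-only controls was fitted by nonlinear regression to give IC50.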

For experiment [2], the target named is T2, human TDO (TDO-expressing HEK293 cells) (Homo sapiens, UniProt P48775).
T2 construct: expressed in transfected cells
T2 sequence (P48775 whole entry): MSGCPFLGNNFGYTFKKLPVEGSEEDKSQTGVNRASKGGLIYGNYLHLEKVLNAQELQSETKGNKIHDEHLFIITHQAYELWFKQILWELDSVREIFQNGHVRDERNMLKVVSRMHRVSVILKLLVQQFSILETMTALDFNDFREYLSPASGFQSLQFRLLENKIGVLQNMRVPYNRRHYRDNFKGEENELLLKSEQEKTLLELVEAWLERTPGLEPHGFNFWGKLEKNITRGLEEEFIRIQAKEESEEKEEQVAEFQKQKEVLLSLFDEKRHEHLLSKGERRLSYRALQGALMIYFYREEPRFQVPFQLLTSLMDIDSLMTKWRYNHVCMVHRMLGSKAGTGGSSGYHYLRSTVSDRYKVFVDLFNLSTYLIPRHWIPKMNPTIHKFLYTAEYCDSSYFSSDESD
As to the kind of experiment: Cell based kynurenine assay, TDO-expressing HEK293 cell clones. As to conditions: TDO-expressing HEK293 cells, 24 hours incubation; geometric mean; read-out: HEK293 TDO Kynurenine GMean IC50 (μM) (Cellular Assay). The essentials: as §1

The target of experiment [3] is T3, Human Indoleamine 2,3-dioxygenase (IDO) (Homo sapiens, UniProt P14902).
T3 construct: His tag (N); made in house; host or cells: E. coli
T3 sequence (P14902 whole entry): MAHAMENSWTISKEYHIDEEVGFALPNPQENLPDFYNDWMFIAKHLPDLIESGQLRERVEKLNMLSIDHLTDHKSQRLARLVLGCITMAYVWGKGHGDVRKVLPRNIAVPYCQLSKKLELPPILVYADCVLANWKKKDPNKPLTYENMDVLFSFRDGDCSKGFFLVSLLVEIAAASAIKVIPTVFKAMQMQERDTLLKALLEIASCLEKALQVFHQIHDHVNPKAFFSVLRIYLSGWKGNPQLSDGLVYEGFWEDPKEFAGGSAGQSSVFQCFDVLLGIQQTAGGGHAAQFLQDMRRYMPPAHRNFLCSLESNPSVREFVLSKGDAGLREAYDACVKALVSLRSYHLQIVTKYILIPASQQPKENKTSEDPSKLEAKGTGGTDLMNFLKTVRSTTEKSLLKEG
As to the kind of experiment: Human IDO enzymatic assay (kynurenine level). The class given is biochemical. As to conditions: 6 nM IDO, 10 μM L-Trp; geometric mean; read-out: IDO1 GMean: IC50 (μM) (Biochemical Assay). The essentials: (§2)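 N-terminally His-tagged enzymes expressed in E. coli were run in 50 mM sodium phosphate pH 6.5 with 10 mM ascorbate, catalase and Tween 20. IDO: 6 nM enzyme, 10 μM L-Trp, 5 μM methylene blue, 20 min RT. TDO: 1 nM enzyme, 350 μM L-Trp, 0.4 μM methylene blue, 70 min RT.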

Experiment [4] concerns the target T4, Human Tryptophan 2,3-dioxygenase (TDO) (Homo sapiens, UniProt P48775).
T4 construct: His tag (N); made in house; host or cells: E. coli
As to the kind of experiment: Human TDO enzymatic assay (kynurenine level). In kind it is biochemical. As to conditions: 1 nM TDO, 350 μM L-Trp; geometric mean; read-out: TDO GMean: IC50 (μM) (Biochemical Assay). The essentials:
as §2

T4 sequence (P48775 whole entry): as the sequence (P48775 whole entry) above
T1 sequence (P14902 whole entry): as the sequence (P14902 whole entry) above

On to `O=C(c1c2c(cc3cn[nH]c13)CC2)C(F)(F)C1CCOCC1` [Compound P-0275, 1-(5,6-dihydro-1H-cyclobuta[f]indazol-7-yl)-2,2-difluoro-2-(tetrahydro-2H-pyran-4-yl)ethan-1-one], for which the 50% inhibitory concentration (IC50) in experiment [1], in experiment [2], in experiment [3] and in experiment [4] was 0.0001 to 10 µM in each case.
`CCS(=O)(=O)N1CCC(C(F)(F)C(O)c2cc(Cl)cc3cn[nH]c23)CC1` (stereo not shown) [Compound P-0276, 1-(5-chloro-1H-indazol-7-yl)-2-(1-(ethylsulfonyl)piperidin-4-yl)-2,2-difluoroethan-1-ol]: the IC50 in experiment [1], in experiment [2], in experiment [3] and in experiment [4] was 0.0001 to 10 µM in each case.
Regarding `OC(c1c2c(cc3cn[nH]c13)CC2)C1(C2CCOCC2)CC1` (stereo not shown) [Compound P-0277, (5,6-dihydro-1H-cyclobuta[f]indazol-7-yl)(1-(tetrahydro-2H-pyran-4-yl)cyclopropyl)methanol], the IC50 in experiment [1] was 0.0001 to 10 µM; in experiment [2], over 10 µM; in experiment [3], 0.0001 to 10 µM; in experiment [4], 0.0001 to 10 µM.
Turning to `OC(c1c2c(cc3cn[nH]c13)CC2)C(F)(F)C1CCOCC1` (stereo not shown) [Compound P-0278, 1-(5,6-dihydro-1H-cyclobuta[f]indazol-7-yl)-2,2-difluoro-2-(tetrahydro-2H-pyran-4-yl)ethan-1-ol], the 50% inhibitory concentration (IC50) in experiment [1] was 0.0001 to 10 µM; in experiment [2] it was over 10 µM; in experiment [3], 0.0001 to 10 µM; in experiment [4], 0.0001 to 10 µM.
Regarding `OC(c1c2c(cc3cn[nH]c13)CC2)C12CCC(CC1)CC2` (stereo not shown) [Compound P-0279, bicyclo[2.2.2]octan-1-yl(5,6-dihydro-1H-cyclobuta[f]indazol-7-yl)methanol], the IC50 in experiment [1] is 0.0001 to 10 µM; in experiment [2], over 10 µM; in experiment [3], 0.0001 to 10 µM; in experiment [4] it was 0.0001 to 10 µM.
`CC(C)(C1CCN(S(C)(=O)=O)CC1)C(O)c1c2c(cc3cn[nH]c13)CC2` (stereo not shown) [Compound P-0280, 1-(5,6-dihydro-1H-cyclobuta[f]indazol-7-yl)-2-methyl-2-(1-(methylsulfonyl)piperidin-4-yl)propan-1-ol]: the concentration for half-maximal inhibition (IC50) in experiment [1] was 0.0001 to 10 µM; in experiment [2], over 10 µM; in experiment [3], 0.0001 to 10 µM; in experiment [4] it was 0.0001 to 10 µM.
As for `CC(=O)N1CC2CCC(C1)C2CC(O)c1cc(Cl)cc2cn[nH]c12` (stereo not shown) [Compound P-0281, 1-(8-(2-(5-chloro-1H-indazol-7-yl)-2-hydroxyethyl)-3-azabicyclo[3.2.1]octan-3-yl)ethan-1-one], the IC50 in experiment [1], in experiment [2], in experiment [3] and in experiment [4] was 0.0001 to 10 µM throughout.
On to `CS(=O)(=O)N1CC2CCC(C1)C2CC(O)c1cc(Cl)cc2cn[nH]c12` (stereo not shown) [Compound P-0282, 1-(5-chloro-1H-indazol-7-yl)-2-(3-(methylsulfonyl)-3-azabicyclo[3.2.1]octan-8-yl)ethan-1-ol], for which the IC50 in experiment [1], in experiment [2], in experiment [3] and in experiment [4] was 0.0001 to 10 µM throughout.
Regarding `CS(=O)(=O)N1CCC(C(O)c2cc(Cl)cc3cn[nH]c23)CC1` (stereo not shown) [Compound P-0283, (5-chloro-1H-indazol-7-yl)(1-(methylsulfonyl)piperidin-4-yl)methanol], the IC50 in experiment [1] is over 10 µM; in experiment [2], 0.0001 to 10 µM; in experiment [3] it was 0.0001 to 10 µM; in experiment [4] it was 0.0001 to 10 µM.
`CC(C)(C1CCN(S(C)(=O)=O)CC1)C(O)c1c(F)ccc2cn[nH]c12` (stereo not shown) [Compound P-0284, 1-(6-fluoro-1H-indazol-7-yl)-2-methyl-2-(1-(methylsulfonyl)piperidin-4-yl)propan-1-ol]: the IC50 in experiment [1], in experiment [2], in experiment [3] and in experiment [4] was 0.0001 to 10 µM each time.

The record behind these values is patent publication US10508085B2, “Compounds and methods for IDO and TDO modulation, and indications therefor” (Plexxikon Inc., priority 2016, dated 2019).
